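The compound was tested at five concentrations on cells cultured in 96-well plates, with a 48-hour exposure period. At the TGI there is no net growth.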
Assays:
Assay in all cases: NCI anticancer screen, dose series, 48 h
[1] = test system: SF-268 CNS
[2] = test system: EKVX NSCLC
[3] = test system: HOP-62 NSCLC
[4] = test system: U251 CNS
[5] = test system: NCI-H522 lung
[6] = test system: DU-145 prostate
[7] = test system: RXF 393 renal
[8] = test system: PC-3 prostate
[9] = test system: HL-60(TB) leukemia
[10] = test system: MALME-3M melanoma

Row | Compound | TGI [1] | TGI [2] | TGI [3] | TGI [4] | TGI [5] | TGI [6] | TGI [7] | TGI [8] | TGI [9] | TGI [10]
1 | O=S(=O)(O)c1ccc(O)c(N=Nc2c(O)ccc3ccccc23)c1 | > 100 µM | > 100 µM | > 100 µM | > 100 µM | > 100 µM | > 100 µM | > 100 µM | > 100 µM | – | –
2 | NS(=O)(=O)c1nnc(NS(=O)(=O)c2cccc3cccnc23)s1 | > 100 µM | > 100 µM | > 100 µM | > 100 µM | – | > 100 µM | > 100 µM | – | – | –
3 | COc1cc(C2c3cccc4cccc(c34)C3CCC(=O)N32)cc(OC)c1O (stereo not given) | – | > 50 µM | > 50 µM | > 50 µM | – | > 50 µM | > 50 µM | > 50 µM | > 50 µM | –
4 | COCC(C#N)NC1CC(OC2CC(O)(C(=O)CO)Cc3c(O)c4c(c(O)c32)C(=O)c2c(OC)cccc2C4=O)OC(C)C1O (stereo not given) | 0.691 µM | 4.62 µM | 0.261 µM | 0.86 µM | 0.193 µM | – | 0.497 µM | 1.2 µM | 0.432 µM | 0.18 µM
5 | C=CC(=O)N1C/C(=C\c2ccc(OC)cc2)C(=O)/C(=C/c2ccc(OC)cc2)C1 | 17.1 µM | 40.7 µM | 11.2 µM | 6.43 µM | – | 23.1 µM | 3.23 µM | 4.19 µM | > 100 µM | 8.4 µM
6 | Cc1cn(C2CC(O)C(Cn3nncc3Cn3nc(Br)c(=O)[nH]c3=O)O2)c(=O)[nH]c1=O (stereo not given) | > 100 µM | > 100 µM | > 100 µM | > 100 µM | > 100 µM | > 100 µM | > 100 µM | > 100 µM | – | > 100 µM
7 | NC1(c2cc3ccccc3s2)CCCCCC1 | – | 33.2 µM | 27.7 µM | 29.1 µM | – | 30.9 µM | 25.4 µM | 24 µM | 31.5 µM | –
8 | CC1CN(c2cc3c(cc2F)c(=O)c(C(=O)O)cn3-c2ccc(N3CCN(C)CC3)cn2)CC(C)N1 (stereo not given) | > 100 µM | > 100 µM | > 100 µM | > 100 µM | – | > 100 µM | > 100 µM | > 100 µM | > 100 µM | > 100 µM
9 | CCCCCCc1ccc(CCCCCCCC(=O)O)o1 | – | > 100 µM | > 100 µM | – | – | > 100 µM | – | > 100 µM | – | –
10 | Cc1ccc(/C=c2\c(=O)[nH]c3nc4ccccc4c(=O)n23)cc1 | > 100 µM | – | > 100 µM | 38 µM | > 100 µM | > 100 µM | 98.7 µM | > 100 µM | > 100 µM | > 100 µM
11 | CCOC(=O)c1nc2ccccc2nc1Nc1ccc(C(=O)OC)s1 | > 100 µM | > 100 µM | > 100 µM | > 100 µM | > 100 µM | > 100 µM | – | > 100 µM | > 100 µM | > 100 µM
12 | N#CC1=C(O)NC(O)=C(C#N)C1c1c(Cl)cccc1Cl | > 100 µM | > 100 µM | 67.8 µM | > 100 µM | > 100 µM | – | 28.7 µM | – | > 100 µM | > 100 µM
13 | O=S(=O)(O)c1cc(S(=O)(=O)O)c2cc(N=Nc3ccc(N=Nc4ccc(/C=C/c5ccc(N=[N+]([O-])c6ccc(/C=C/c7ccc(N=Nc8ccc(N=Nc9ccc%10cc(S(=O)(=O)O)cc(S(=O)(=O)O)c%10c9)cc8)cc7S(=O)(=O)O)c(S(=O)(=O)O)c6)cc5S(=O)(=O)O)c(S(=O)(=O)O)c4)cc3)ccc2c1 | > 100 µM | > 100 µM | > 100 µM | > 100 µM | > 100 µM | – | > 78.7 µM | – | > 100 µM | > 100 µM
14 | [N-]=[N+]=Nc1cc(=O)[nH]c2ccccc12 | > 100 µM | 42.5 µM | > 100 µM | > 100 µM | > 100 µM | – | > 100 µM | > 100 µM | – | > 100 µM
15 | N=c1ncn(C/C=C/c2ccccc2)c2nc[nH]c12 | > 100 µM | > 100 µM | > 100 µM | > 100 µM | > 100 µM | > 100 µM | > 100 µM | > 100 µM | – | > 100 µM
16 | COC1C(O)C(C)OC(O[C@H]2CC[C@@]3(C)C(CC[C@@H]4[C@@H]3CC[C@]3(C)[C@@H](C(C)OC5OC(CO)C(O)C(O)C5O)CC[C@]43O)C2)C1O (stereo not given in full) | > 25 µM | > 25 µM | > 25 µM | > 25 µM | > 25 µM | – | – | > 25 µM | > 25 µM | –
17 | Cc1nc(N)c(N2CCN(S(=O)(=O)N(Cc3ccccc3)Cc3ccccc3)CC2)c(=O)[nH]1 | 73.5 µM | > 100 µM | 83.5 µM | 36.8 µM | – | 52.7 µM | – | 46.5 µM | > 100 µM | 56.6 µM
18 | COC(=O)N[C@@H]1C[C@H]2CC[C@]1(O[Si](C(C)C)(C(C)C)C(C)C)C(=O)C2 | 28.6 µM | 31.8 µM | 46.4 µM | – | 24 µM | > 100 µM | – | 33.9 µM | 78.7 µM | –
19 | COC1(OC)CC(CO)(COc2cc(Cl)nc(N)n2)C1 | > 100 µM | > 100 µM | > 100 µM | > 100 µM | > 100 µM | > 100 µM | > 100 µM | > 100 µM | – | > 100 µM
20 | C=C(C)C1(Sc2ccc(OC)cc2)CC1 | 67 µM | > 100 µM | > 100 µM | > 100 µM | – | > 100 µM | 36.3 µM | > 100 µM | 41.6 µM | 66.9 µM
21 | Cc1cnc2c(c1)C(=O)N(c1ccc(Oc3ccccc3)cc1)S2(=O)=O | > 100 µM | > 100 µM | > 100 µM | > 100 µM | > 100 µM | > 100 µM | – | > 100 µM | > 100 µM | > 100 µM
22 | O=C(O)c1cc(NCc2cc(O)ccc2O)ccc1O | > 100 µM | > 100 µM | > 100 µM | > 100 µM | 40.7 µM | > 100 µM | > 100 µM | > 100 µM | – | –
23 | CC(C)(C)OC(=O)N1C(=O)C2CCCC21 (stereo not given) | > 100 µM | – | > 100 µM | > 100 µM | – | > 100 µM | > 100 µM | > 100 µM | > 100 µM | –
24 | Oc1ccc(-c2nc3cc(C(F)(F)F)ccc3s2)cc1 | 30.8 µM | 16.9 µM | – | 30.5 µM | 25.7 µM | 30 µM | 33.2 µM | 27.9 µM | 40.7 µM | 26.6 µM
25 | CC(C)OC1=C(CC2(C)OCCO2)C(=O)C12OCCO2 | > 100 µM | > 100 µM | > 100 µM | > 100 µM | > 100 µM | > 100 µM | – | > 100 µM | > 100 µM | –
